From patent US20200239398A1, “METHYLENE-CYCLOALKYLACETATE DERIVATIVES AND THEIR USE IN TREATMENT OF NEUROTROPIC CONDITIONS” (Yissum Research Development Company of The Hebrew …, priority 2018, published 2020) come the findings set out here.

This experiment addresses T1, N-methyl-D-aspartate (NMDA) Glutamate Receptor 1A/2B (NMDAR (1A/2B)) (Homo sapiens, UniProt Q05586+Q13224).
T1 construct: DiscoverX (SAFETYscan contract panel)
The experiment in a line: SAFETYscan NMDAR (1A/2B) Ion channel. It counts as cell-based. Conditions: Blocker mode; reference compound; read-out: RC50 (the source's name).

T1 sequence (Q13224 27-1484, other chains not shown): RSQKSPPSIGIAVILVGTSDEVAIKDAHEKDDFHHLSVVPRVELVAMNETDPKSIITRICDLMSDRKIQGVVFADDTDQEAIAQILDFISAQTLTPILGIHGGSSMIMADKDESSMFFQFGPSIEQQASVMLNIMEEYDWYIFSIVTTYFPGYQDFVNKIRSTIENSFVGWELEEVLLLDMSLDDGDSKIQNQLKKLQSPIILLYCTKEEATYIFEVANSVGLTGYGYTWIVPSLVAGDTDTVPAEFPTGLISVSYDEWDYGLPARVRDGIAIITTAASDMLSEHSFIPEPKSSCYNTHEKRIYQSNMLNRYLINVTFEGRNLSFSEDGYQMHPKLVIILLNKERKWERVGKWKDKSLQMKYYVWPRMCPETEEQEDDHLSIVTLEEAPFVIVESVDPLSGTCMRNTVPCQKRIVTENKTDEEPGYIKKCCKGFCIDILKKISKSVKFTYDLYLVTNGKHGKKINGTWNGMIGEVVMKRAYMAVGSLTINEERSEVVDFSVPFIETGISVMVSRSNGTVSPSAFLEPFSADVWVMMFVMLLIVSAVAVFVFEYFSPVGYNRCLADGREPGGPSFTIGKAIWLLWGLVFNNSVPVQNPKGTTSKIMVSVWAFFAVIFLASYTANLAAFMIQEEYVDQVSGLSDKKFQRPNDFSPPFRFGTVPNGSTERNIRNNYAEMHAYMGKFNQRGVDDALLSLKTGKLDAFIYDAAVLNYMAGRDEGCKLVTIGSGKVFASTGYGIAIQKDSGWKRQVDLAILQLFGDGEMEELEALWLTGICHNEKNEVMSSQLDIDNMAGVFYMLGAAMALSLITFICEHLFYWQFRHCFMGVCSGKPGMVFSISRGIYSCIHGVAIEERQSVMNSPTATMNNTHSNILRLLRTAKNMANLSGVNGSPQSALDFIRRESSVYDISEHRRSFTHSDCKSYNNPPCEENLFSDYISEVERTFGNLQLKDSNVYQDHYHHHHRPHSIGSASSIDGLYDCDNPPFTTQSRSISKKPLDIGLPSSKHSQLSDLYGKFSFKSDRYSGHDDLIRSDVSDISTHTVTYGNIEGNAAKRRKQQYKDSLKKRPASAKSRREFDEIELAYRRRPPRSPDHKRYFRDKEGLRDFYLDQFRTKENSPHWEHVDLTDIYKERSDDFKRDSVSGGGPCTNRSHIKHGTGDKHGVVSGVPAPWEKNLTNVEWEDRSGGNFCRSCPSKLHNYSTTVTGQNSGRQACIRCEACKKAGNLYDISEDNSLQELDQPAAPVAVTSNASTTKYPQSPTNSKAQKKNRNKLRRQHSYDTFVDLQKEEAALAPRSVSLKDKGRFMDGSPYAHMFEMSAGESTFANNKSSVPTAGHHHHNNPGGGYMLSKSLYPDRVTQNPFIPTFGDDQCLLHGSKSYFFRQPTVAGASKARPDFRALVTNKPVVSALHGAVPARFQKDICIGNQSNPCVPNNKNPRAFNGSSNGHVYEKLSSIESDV

Take `C[C@]12N[C@H](Cc3ccccc31)c1ccccc12` [MK 801, reference compound]: the IC50 was determined as 52.8 nM.
